From patent publication US20120028252A1, “HUMAN MENA ISOFORMS SERVE AS MARKERS OF EPITHELIAL TO MESENCHYMAL TRANSITION AND SENSITIVITY TO EGFR INHIBITION IN HUMAN CANCER CELLS” (priority 2008, published 2012)

How the values were obtained:
[1] = tested on: hMena and hMena^+11a in breast cancer cell lines; conditions: cited from earlier work
[2] = tested on: Hs766T pancreatic cancer cell line; assay: Proliferation assay (cellular ATP, Vialight); type: cell-based, human; conditions: erlotinib 10 μmol/L
Procedure: (§5) The effects of increasing concentrations of erlotinib (0.1 to 10 μmol/L) on cell proliferation were assessed by measuring the intracellular ATP content using the Vialight assay. Results are expressed as percentage inhibition of ATP incorporation relative to untreated cells. […] Proliferation assays. Cell proliferation was determined by measurement of cellular ATP levels with a high sensitivity cell proliferation/cytotoxicity kit (Vialight Plus, Cambrex Bio Sci Rockland Inc., Rockland, Me.). Briefly, cells were plated in 96-well plates at a density of 1×10^4 per well and exposed 24 hours later to various concentrations of erlotinib (0.1-10 μmol/L) in serum-free media. After 24 hours nucleotide (ATP) releasing reagent (100 μl) was added to each well and the plate was incubated for 10 min at room temperature. Cell lysate (180 μl) was transferred to a luminescence compatible plate. The 96-well plates were read using a Perkin Elmer LS 50B luminometer. ATP levels in cells were normalized to levels in untreated control cultures.

[3] = tested on: Panc1 cells; assay: Proliferation assay after hMena siRNA knock-down, Panc1; type: cell-based, human; conditions: hMena siRNA construct (48 h) plus erlotinib (100 nM, 24 h)
Procedure: (§1) Silencing of hMena reduces the baseline growth rate in BxPC3 compared with the growth rate of untransfected cells and cells transfected with non specific siRNA (45% vs 100%, P<0.01). […] Proliferation assays were conducted 72 h after the siRNA transfection.
(§2) Proliferation assays. Cell proliferation was determined by measurement of cellular ATP levels with a high sensitivity cell proliferation/cytotoxicity kit (Vialight Plus, Cambrex Bio Sci Rockland Inc., Rockland, Me.). Briefly, cells were plated in 96-well plates at a density of 1×10^4 per well and exposed 24 hours later to various concentrations of erlotinib (0.1-10 μmol/L) in serum-free media. After 24 hours nucleotide (ATP) releasing reagent (100 μl) was added to each well and the plate was incubated for 10 min at room temperature. Cell lysate (180 μl) was transferred to a luminescence compatible plate. The 96-well plates were read using a Perkin Elmer LS 50B luminometer. ATP levels in cells were normalized to levels in untreated control cultures.
(§3) Small interfering RNA treatment. Cells in exponential growth phase were transfected with 100 nmol/L hMena-specific pooled small interfering RNA (siRNA) duplexes (siENA SMART pool) or control non-specific siRNA (Dharmacon, Lafayette, Colo.) using LipofectAMINE 2000 reagent (Invitrogen, Paisley, United Kingdom). […]

[4] = tested on: L3.6 μl human pancreatic cancer cell line; assay: Proliferation assay (cellular ATP, Vialight); type: cell-based; conditions: erlotinib 1 μmol/L, 24 hours, serum-free media
Procedure: (§6) The effects of increasing concentrations of erlotinib (0.1 to 10 μmol/L) on cell proliferation were assessed by measuring the intracellular ATP content using the Vialight assay. Results are expressed as percentage inhibition of ATP incorporation relative to untreated cells. […] Cell proliferation was determined by measurement of cellular ATP levels with a high sensitivity cell proliferation/cytotoxicity kit (Vialight Plus, Cambrex Bio Sci Rockland Inc., Rockland, Me.). Briefly, cells were plated in 96-well plates at a density of 1×10^4 per well and exposed 24 hours later to various concentrations of erlotinib (0.1-10 μmol/L) in serum-free media. After 24 hours nucleotide (ATP) releasing reagent (100 μl) was added to each well and the plate was incubated for 10 min at room temperature. Cell lysate (180 μl) was transferred to a luminescence compatible plate. The 96-well plates were read using a Perkin Elmer LS 50B luminometer. ATP levels in cells were normalized to levels in untreated control cultures.

[5] = tested on: BxPC3 cells; assay: Proliferation assay after hMena siRNA knock-down, BxPC3; type: cell-based, human
Procedure: as §1, §2, §3

[6] = tested on: Panc1 pancreatic cancer cell line; assay: Proliferation assay (cellular ATP, Vialight); type: cell-based, human; conditions: erlotinib 10 μmol/L
Procedure: as §5

[7] = tested on: PT45 pancreatic cancer cell line; assay: Proliferation assay (cellular ATP, Vialight); type: cell-based, human; conditions: erlotinib 10 μmol/L
Procedure: as §6

[8] = tested on: T3M4 pancreatic cancer cell line; assay: Proliferation assay (cellular ATP, Vialight); type: cell-based; conditions: Homo sapiens, erlotinib 1 μmol/L, 24 hours, serum-free media
Procedure: as §6

[9] = tested on: MiaPaCa-2 pancreatic cancer cell line; assay: Proliferation assay (cellular ATP, Vialight); type: cell-based, human; conditions: erlotinib 10 μmol/L
Procedure: as §5

[10] = tested on: BxPC3 pancreatic cancer cell line; assay: Proliferation assay (cellular ATP, Vialight); type: cell-based; conditions: Homo sapiens, BXPC-3; erlotinib 1 μmol/L, 24 hours, serum-free media
Procedure: as §6

[11] = tested on: PACA44 pancreatic cancer cell line; assay: Proliferation assay (cellular ATP, Vialight); type: cell-based; conditions: Homo sapiens, PaCa-44; erlotinib 1 μmol/L, 24 hours, serum-free media
Procedure: as §6

[12] = tested on: hMena and hMena^+11a protein in BxPC3 cells; assay: Western blot of hMena expression after EGF and erlotinib treatment, BxPC3; type: cell-based, human
Procedure: (§4) Cell treatments. Cells were grown in six-well plates to confluence in RPMI supplemented with 10% fetal bovine serum. After 18 hours in serum-free medium, the cells were treated with different amounts of rhEGF (Promega) for 24 hours. Erlotinib (10 μmol/L) was added 2 hours before EGF treatment. Western blot analyses. Cells were lysed as reported (32). Lysates (30 or 100 μg) were resolved on 10% polyacrylamide gel and transferred to nitrocellulose membranes (GE Healthcare, Piscataway, N.J.). Membranes were blocked in 5% non-fat milk in Tris-buffered saline (TBS) containing 0.1% Tween 20 (TBS-T) for 1 hour at room temperature, incubated overnight with relevant antibodies, washed, and probed with species-specific secondary antibodies coupled to horseradish peroxidase, and detected by enhanced chemiluminescence (Amersham Biosciences).

[13] = tested on: hMena and hMena^+11a protein in Panc1 cells; assay: Western blot of hMena expression after EGF and erlotinib treatment, Panc1; type: cell-based, human; conditions: EGF 50 and 100 ng/ml, 24 hours
Procedure: as §4

In the case of `COc1cc2ncnc(Nc3cccc(Cl)c3)c2cc1OC` [AG1478], the “EGF-promoted up-regulation of hMena and hMena^+11a and increase of phosphorylated hMena^+11a” value ([1]; pre-treatment of breast cancer cell lines before EGF) is given as “inhibited”.
With `C#Cc1cccc(Nc2ncnc3cc(OCCOC)c(OCCOC)cc23)c1` [erlotinib] the growth rate [2] was “not significantly affected”, the “proliferation, combined exposure” value [3] was “did not” and the inhibition at 1 µM [4] was at least 50%. For the same compound, the “proliferation, combined exposure” value ([5]; hMena siRNA construct (48 h) plus erlotinib (100 nM, 24 h), BxPC3) was “additive decrease”, the cell proliferation ([5]; hMena-silenced BxPC3 cells treated with erlotinib 0.1 μM/L for 24 h) was “dramatic decrease” and the growth rate [6] was “not significantly affected”. The growth rate [7] was “not significantly affected”, the inhibition at 1 µM [8] was at least 50% and the growth rate [9] was “not significantly affected”. For the same compound, the inhibition at 1 µM [10] was at least 50%, the inhibition at 1 µM [11] was at least 50% and the hMena expression ([12]; erlotinib (10 μmol/L, 2 hours before EGF) added to EGF-treated BxPC3 cells) was “down regulated”.
In the case of “EGF: Recombinant human EGF purchased from Promega (NSDSECPLSHDGYCLHDGVCMYIEALDKYACNCVVGYIGERCQYRDLKWWELR; UniProt P01133 971-1023, looked up)”, the “hMena and hMena^+11a expression” value ([1]; EGF treatment of breast cancer cell lines) is listed as “up-regulation”, the “hMena^+11a expression and phosphorylation” value ([1]; HER2 activation by EGF and NRG1 treatment, breast cancer cell lines) is listed as “up-regulation and phosphorylation” and the “hMena and hMena^+11a protein level” value ([12]; EGF 50 and 100 ng/ml, 24 hours, BxPC3) is listed as “clearly increased”. The “hMena and hMena^+11a protein level” value [13] was “clearly increased”.
